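These data come from cells grown in 96-well plates and exposed to compound for 48 hours at five concentrations. GI50 is the concentration that inhibits growth by half.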 Active and inactive are the calls of the source. No stated cut-off is given here; in the data, active = GI50 up to about 1.1 µM and inactive = higher.
Key:
Test in all cases: NCI-60 cell line screen, 48 h
[1] = tested on: 786-0
[2] = tested on: A498
[3] = tested on: A549
[4] = tested on: CAKI-1
[5] = tested on: CCRF-CEM
[6] = tested on: HCT-116
[7] = tested on: HCT-15
[8] = tested on: HOP-62
[9] = tested on: Hs-578T
[10] = tested on: LOX IMVI
[11] = tested on: MDA-MB-435
[12] = tested on: NCI-H522
[13] = tested on: OVCAR-3
[14] = tested on: OVCAR-8
[15] = tested on: SF-295
[16] = tested on: SN12C
[17] = tested on: SR
[18] = tested on: U-251
[19] = tested on: UACC-62
[20] = tested on: SK-OV-3

| SMILES | GI50 [1] | GI50 [2] | GI50 [3] | GI50 [4] | GI50 [5] | GI50 [6] | GI50 [7] | GI50 [8] | GI50 [9] | GI50 [10] | GI50 [11] | GI50 [12] | GI50 [13] | GI50 [14] | GI50 [15] | GI50 [16] | GI50 [17] | GI50 [18] | GI50 [19] | GI50 [20] |
| --- | --- | --- | --- | --- | --- | --- | --- | --- | --- | --- | --- | --- | --- | --- | --- | --- | --- | --- | --- | --- |
| O=C(NCc1ccc(Cl)c(Cl)c1)c1nc2ccccc2nc1NCc1ccc(Cl)c(Cl)c1 | > 100 µM (inactive) | > 100 µM (inactive) | > 100 µM (inactive) | > 100 µM (inactive) | > 100 µM (inactive) | > 100 µM (inactive) | > 100 µM | 83.6 µM (inactive) | > 100 µM (inactive) | > 100 µM (inactive) | > 100 µM (inactive) | > 100 µM (inactive) | > 100 µM (inactive) | > 100 µM (inactive) | > 100 µM (inactive) | > 100 µM (inactive) | > 100 µM (inactive) | > 100 µM (inactive) | > 100 µM (inactive) | – |
| N#CCCN(CCC#N)c1ccc(/C=C2\N=C(c3ccccc3)N(c3ccc(F)cc3)C2=O)cc1 | > 100 µM (inactive) | > 100 µM (inactive) | > 100 µM (inactive) | > 100 µM (inactive) | – | > 100 µM (inactive) | > 100 µM | > 100 µM (inactive) | > 100 µM (inactive) | > 100 µM (inactive) | > 100 µM (inactive) | – | > 100 µM (inactive) | > 100 µM (inactive) | > 100 µM (inactive) | > 100 µM (inactive) | > 100 µM (inactive) | > 100 µM (inactive) | > 100 µM (inactive) | > 100 µM (inactive) |
| Oc1c(C2=NNC(c3ccc(Cl)cc3Cl)C2)ccc2ccccc12 (centres undefined) | 31.5 µM (inactive) | 71.4 µM (inactive) | 29 µM (inactive) | 66.5 µM (inactive) | 5.26 µM (inactive) | 33.6 µM (inactive) | 34.9 µM | 38.7 µM (inactive) | 35.6 µM (inactive) | – | 22.8 µM (inactive) | 24 µM (inactive) | 20.1 µM (inactive) | 29.4 µM (inactive) | 28.3 µM (inactive) | 32.6 µM (inactive) | 8.38 µM (inactive) | 32.5 µM (inactive) | 40.6 µM (inactive) | 46.3 µM (inactive) |
| CC12CCC([C@H](C(O)C3CCCCC3)C1=O)C2(C)C (some centres undefined) | > 100 µM (inactive) | > 100 µM (inactive) | – | > 100 µM (inactive) | 31.6 µM (inactive) | > 100 µM (inactive) | > 100 µM | > 100 µM (inactive) | > 100 µM (inactive) | > 100 µM (inactive) | > 100 µM (inactive) | 65.8 µM (inactive) | > 100 µM (inactive) | > 100 µM (inactive) | > 100 µM (inactive) | > 100 µM (inactive) | 22.4 µM (inactive) | > 100 µM (inactive) | > 100 µM (inactive) | > 100 µM (inactive) |
| COc1cc(CC2CC(c3ccc4c(c3)OCO4)OC2=O)cc(OC)c1OC (centres undefined) | > 100 µM (inactive) | > 100 µM (inactive) | > 100 µM (inactive) | 59.2 µM (inactive) | > 100 µM (inactive) | > 100 µM (inactive) | > 100 µM | > 100 µM (inactive) | > 100 µM (inactive) | > 100 µM (inactive) | > 100 µM (inactive) | – | 49.5 µM (inactive) | > 100 µM (inactive) | > 100 µM (inactive) | > 100 µM (inactive) | > 100 µM (inactive) | > 100 µM (inactive) | 52.5 µM (inactive) | > 100 µM (inactive) |
| COc1ccc2c(c1)C(N)=C(c1ccccc1OC)C2=O | > 100 µM (inactive) | > 100 µM (inactive) | – | > 100 µM (inactive) | > 100 µM (inactive) | > 100 µM (inactive) | > 100 µM | > 100 µM (inactive) | > 100 µM (inactive) | > 100 µM (inactive) | 53.6 µM (inactive) | – | > 100 µM (inactive) | > 100 µM (inactive) | > 100 µM (inactive) | > 100 µM (inactive) | 29.9 µM (inactive) | > 100 µM (inactive) | 77.8 µM (inactive) | > 100 µM (inactive) |
| CCOC(=O)c1[nH]c2ccccc2c1C(=O)C[C@H](NC(=O)C(F)(F)F)C(=O)OC | > 100 µM (inactive) | > 100 µM (inactive) | > 100 µM (inactive) | > 100 µM (inactive) | > 100 µM (inactive) | > 100 µM (inactive) | > 100 µM | > 100 µM (inactive) | > 100 µM (inactive) | > 100 µM (inactive) | > 100 µM (inactive) | 97.3 µM (inactive) | > 100 µM (inactive) | > 100 µM (inactive) | > 100 µM (inactive) | > 100 µM (inactive) | > 100 µM (inactive) | > 100 µM (inactive) | – | – |
| COC(=O)[C@]12C3=C(O)C(=O)C[C@H]1OC[C@H]2C=CC3 | > 100 µM (inactive) | > 100 µM (inactive) | > 100 µM (inactive) | > 100 µM (inactive) | – | > 10 µM (inactive) | > 100 µM | > 100 µM (inactive) | > 100 µM (inactive) | > 100 µM (inactive) | > 100 µM (inactive) | 20.1 µM (inactive) | > 100 µM (inactive) | > 100 µM (inactive) | > 100 µM (inactive) | > 100 µM (inactive) | > 100 µM (inactive) | > 100 µM (inactive) | > 100 µM (inactive) | > 100 µM (inactive) |

From ChEMBL document CHEMBL1201862, “PubChem BioAssay data set” (2004)
